Assay results published in US7192924B2, “Corticotropin releasing factor 2 receptor agonists” (priority 2002, dated 2007).
pEC50: −log10 of the molar value. Peptide text beside a SMILES is read from it.

Tests used:
CRF1R = target: T1, CRF1R (Homo sapiens, UniProt P34998); assay: CRF1R agonist activity (EC50, Emax), called comparative CRF binding; type: cell-based; conditions: read-out: CRF1R EC50
T1 sequence (P34998 24-415): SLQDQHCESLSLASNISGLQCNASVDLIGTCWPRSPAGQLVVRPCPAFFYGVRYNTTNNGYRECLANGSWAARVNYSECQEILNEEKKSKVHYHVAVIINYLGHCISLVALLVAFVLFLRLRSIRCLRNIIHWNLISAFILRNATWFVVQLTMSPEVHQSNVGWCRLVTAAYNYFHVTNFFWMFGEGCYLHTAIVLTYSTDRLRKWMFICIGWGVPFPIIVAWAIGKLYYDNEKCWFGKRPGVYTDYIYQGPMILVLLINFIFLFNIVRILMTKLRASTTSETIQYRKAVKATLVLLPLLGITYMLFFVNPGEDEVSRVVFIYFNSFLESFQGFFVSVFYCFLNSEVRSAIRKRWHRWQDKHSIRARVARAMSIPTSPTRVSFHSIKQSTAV
Excerpt: The pharmacological activity and selectivity of the peptides of present invention can be determined using published test procedures. See, e.g, U.S. patent application Ser. No. 09/799,978. Because CRF2R and CRF1R are homologous proteins, it is expected that a certain proportion of agonists for CRF2R will also function as agonists of CRF1R. As discussed above, activation of CRF1R induces activation of the HPA axis since increased corticosteroid production leads to skeletal muscle atrophy. In most cases in which an increase in muscle mass or function is desired, it is not desirable to activate the HPA axis.
Because it is desirable to discriminate binding between CRF2R, as compared with CRF1R, the assays described above may be conducted using a cell, or membrane from a cell, which expresses only CRF2R or the assays can be conducted with a recombinant source of CRF2R. Cells expressing both forms of CRFR may be modified using homologous recombination to inactivate or otherwise disable the CRF1R gene. Alternatively, if the source of CRFR contains more than one CRFR type, the background signal produced by the receptor which is not of interest must be subtracted from the signal obtained in the assay. […] Known antagonists of CRFRs include, but, are not limited to, antalarmin (CRF1R selective), antisauvagine-30 (CRF2R selective) and astressin (nonselective for CRF1R/CRF2R).
Cell-based assays include the steps of contacting cells which express CRF1R or CRF2R with a peptide of the present invention or control and measuring activation of the CRFR by measuring the expression or activity of components of the CRFR signal transduction pathways.
As described in the background section above, CRFRs appear to couple through several different pathways including Gαs, Gαq or Gαi, depending upon the cell type. It is thought that agonist activation of CRFR allows the receptor to signal via any of these pathways, provided that the necessary pathway components are present in the particular cell type. Thus, to assay a particular peptide of the present invention for CRFR activation, an assay can use any of the signal transduction pathways as the readout even if the relevant cell type for treatment, in vivo, couples CRFR to skeletal muscle atrophy via a different pathway. […] Assays for measuring activation of these signaling pathways are known in the art.
For example, after contact with a peptide of the present invention, lysates of the cells can be prepared and assayed for induction of cAMP. cAMP is induced in response to Gαs activation. Because Gαs is activated by receptors other than CRFR and because a test peptide may be exerting its effect through CRFRs or by another mechanism, two control comparisons are relevant for determining whether the peptide increases levels of cAMP via activation of a CRFR. One control compares the cAMP level of cells contacted with the peptide and the cAMP level of cells contacted with a control compound (i.e., the vehicle in which the peptide is dissolved).
In one example, cAMP induction is measured with the use of DNA constructs containing the cAMP responsive element linked to any of a variety of reporter genes can be introduced into cells expressing CRFRs. Such reporter genes include, but are not limited to, chloramphenicol acetyltransferase (CAT), luciferase, glucuronide synthetase, growth hormone, fluorescent proteins (e.g., Green Fluorescent Protein), or alkaline phosphatase. Following exposure of the cells to the peptide, the level of reporter gene expression can be quantitated to determine the peptide's ability to increase cAMP levels and thus determine the peptide's ability to activate the CRFR.
In addition to using cells expressing full length CRFRs, cells can be engineered which express CRFRs containing the ligand binding domain of the receptor coupled to, or physically modified to contain, reporter elements or to interact with signaling proteins.

CRF2R = target: T2, CRF2R (Homo sapiens, UniProt Q13324); assay: CRF2R agonist activity (EC50, Emax), called comparative CRF binding; type: cell-based; conditions: read-out: CRF2R EC50
T2 sequence (Q13324 1-411): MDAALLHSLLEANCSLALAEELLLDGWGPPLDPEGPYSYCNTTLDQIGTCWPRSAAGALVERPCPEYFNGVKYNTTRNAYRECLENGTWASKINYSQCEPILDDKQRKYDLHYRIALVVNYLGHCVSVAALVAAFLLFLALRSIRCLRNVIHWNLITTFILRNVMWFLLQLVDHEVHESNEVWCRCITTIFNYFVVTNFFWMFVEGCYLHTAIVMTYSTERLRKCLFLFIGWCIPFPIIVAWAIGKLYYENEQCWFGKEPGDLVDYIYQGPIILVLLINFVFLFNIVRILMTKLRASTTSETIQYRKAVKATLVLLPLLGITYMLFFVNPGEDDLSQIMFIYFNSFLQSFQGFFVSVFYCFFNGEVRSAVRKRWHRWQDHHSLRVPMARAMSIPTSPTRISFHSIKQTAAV
Procedure, shortened: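 Peptides were applied to cells carrying a single CRFR subtype, then cAMP levels or CRE-driven reporter expression were quantified against vehicle-treated cells.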

Row | Compound | pEC50 (CRF1R) | pEC50 (CRF2R)
1 | CC[C@H](C)[C@H](N)C(=O)N[C@H](C(=O)N[C@@H](CC(C)C)C(=O)N[C@@H](CO)C(=O)N[C@@H](CC(C)C)C(=O)N[C@@H](CC(=O)O)C(=O)N[C@H](C(=O)N1CCC[C@H]1C(=O)N[C@H](C(=O)NCC(=O)N[C@@H](CC(C)C)C(=O)N[C@@H](CC(C)C)C(=O)N[C@@H](CCC(N)=O)C(=O)N[C@H](C(=O)N[C@@H](CC(C)C)C(=O)N[C@@H](CC(C)C)C(=O)N[C@@H](CCC(=O)O)C(=O)N[C@@H](CCC(N)=O)C(=O)N[C@@H](C)C(=O)N[C@@H](CCCNC(=N)N)C(=O)N[C@@H](CCC(N)=O)C(=O)N[C@@H](CCC(=O)O)C(=O)N[C@@H](C)C(=O)N[C@@H](C)C(=O)N[C@@H](CCCNC(=N)N)C(=O)N[C@@H](CCC(=O)O)C(=O)N[C@@H](CCC(N)=O)C(=O)N[C@@H](C)C(=O)N[C@H](C(=O)N[C@H](C(=O)N[C@@H](CC(N)=O)C(=O)N[C@@H](C)C(=O)N[C@@H](CCCNC(=N)N)C(=O)N[C@H](C(=O)N[C@@H](CC(C)C)C(=O)N[C@@H](C)C(=O)N[C@@H](CCCNC(=N)N)C(=O)N[C@H](C(N)=O)C(C)C)[C@@H](C)CC)[C@@H](C)O)[C@@H](C)O)[C@@H](C)CC)[C@@H](C)CC)C(C)C)C(C)C [compound 123] (H-IVLSLDVPIGLLQILLEQARQEAAREQATTNARILARV-NH2; N-terminus assumed) | < 6.00 | 8.46
2 | CC[C@H](C)[C@H](N)C(=O)N[C@H](C(=O)N[C@@H](CC(C)C)C(=O)N[C@@H](CO)C(=O)N[C@@H](CC(C)C)C(=O)N[C@@H](CC(=O)O)C(=O)N[C@H](C(=O)N1CCC[C@H]1C(=O)N[C@H](C(=O)NCC(=O)N[C@@H](CC(C)C)C(=O)N[C@@H](CC(C)C)C(=O)N[C@@H](CCC(N)=O)C(=O)N[C@H](C(=O)N[C@@H](CC(C)C)C(=O)N[C@@H](CC(C)C)C(=O)N[C@@H](CCC(=O)O)C(=O)N[C@@H](CCC(N)=O)C(=O)N[C@@H](CCC(=O)O)C(=O)N[C@@H](CCCCN)C(=O)N[C@@H](CCC(N)=O)C(=O)N[C@@H](CCC(=O)O)C(=O)N[C@@H](C)C(=O)N[C@@H](C)C(=O)N[C@@H](CCCNC(=N)N)C(=O)N[C@@H](CCC(=O)O)C(=O)N[C@@H](CCC(N)=O)C(=O)N[C@@H](C)C(=O)N[C@H](C(=O)N[C@H](C(=O)N[C@@H](CC(N)=O)C(=O)N[C@@H](C)C(=O)N[C@@H](CCCNC(=N)N)C(=O)N[C@H](C(=O)N[C@@H](CC(C)C)C(=O)N[C@@H](C)C(=O)N[C@@H](CCCNC(=N)N)C(=O)N[C@H](C(N)=O)C(C)C)[C@@H](C)CC)[C@@H](C)O)[C@@H](C)O)[C@@H](C)CC)[C@@H](C)CC)C(C)C)C(C)C [compound 125] (H-IVLSLDVPIGLLQILLEQEKQEAAREQATTNARILARV-NH2; N-terminus assumed) | < 7.00 | 8.35
3 | CC[C@H](C)[C@H](N)C(=O)N[C@H](C(=O)N[C@@H](CC(C)C)C(=O)N[C@@H](CO)C(=O)N[C@@H](CC(C)C)C(=O)N[C@@H](CC(=O)O)C(=O)N[C@H](C(=O)N1CCC[C@H]1C(=O)N[C@H](C(=O)NCC(=O)N[C@@H](CC(C)C)C(=O)N[C@@H](CC(C)C)C(=O)N[C@@H](CCC(N)=O)C(=O)N[C@H](C(=O)N[C@@H](CC(C)C)C(=O)N[C@@H](CC(C)C)C(=O)N[C@@H](CCC(=O)O)C(=O)N[C@@H](CCC(N)=O)C(=O)N[C@@H](CCCNC(=N)N)C(=O)N[C@@H](C)C(=O)N[C@@H](CCCNC(=N)N)C(=O)N[C@@H](C)C(=O)N[C@@H](C)C(=O)N[C@@H](CCCNC(=N)N)C(=O)N[C@@H](CCC(=O)O)C(=O)N[C@@H](CCC(N)=O)C(=O)N[C@@H](C)C(=O)N[C@H](C(=O)N[C@H](C(=O)N[C@@H](CC(N)=O)C(=O)N[C@@H](C)C(=O)N[C@@H](CCCNC(=N)N)C(=O)N[C@H](C(=O)N[C@@H](CC(C)C)C(=O)N[C@@H](C)C(=O)N[C@@H](CCCNC(=N)N)C(=O)N[C@H](C(N)=O)C(C)C)[C@@H](C)CC)[C@@H](C)O)[C@@H](C)O)[C@@H](C)CC)[C@@H](C)CC)C(C)C)C(C)C [compound 137] (H-IVLSLDVPIGLLQILLEQRARAAREQATTNARILARV-NH2; N-terminus assumed) | < 7.00 | 7.43
